Test results from patent publication US20190388360A1, “PHARMACEUTICAL PATCH COMPRISING LIDOCAINE AND DICLOFENAC FOR TREATING NEUROPATHIC PAIN” (TEIKOKU SEIYAKU CO., LTD., priority 2017, published 2019).

Tests used:
CFA-hindpaw inflammation = assay: CFA-hindpaw inflammation, paw pressure test (CFA-PPT), intraperitoneal injection; type: in vivo, rat; details: ip; Lidocaine dose range 10 mg/kg to 46.4 mg/kg, Diclofenac dose range 21.5 mg/kg to 100 mg/kg
Method: An interaction study was performed as a single dose study in the CFA-hindpaw inflammation, paw pressure test.
In comparative example 1 and inventive examples 1 to 4 described below, a compound or combination of compounds was administered by intraperitoneal injection (FIGS. 1 to 9).
(§1) The pain was measured by pressing a pointer on the inflamed paw. The pointer exerts a force, increasing at a constant rate, monitored by a linear scale. Pain is deemed to be perceived one the rat starts to withdraw the paw. This value (withdrawal threshold in gram) is the pressure at which the animal feels pain (cut-off 450 g). Efficacy of the test compounds is expressed as a percent change of withdrawal threshold after compound administration to the pre-value (withdrawal threshold before compound administration).

[1] = system: CFA-induced paw edema / mechanical-hyperalgesia; assay: CFA-hindpaw inflammation, paw pressure test (CFA-PPT), topical application to the paw as ointment or solution; type: in vivo, male albino rats; details: Lidocaine 30 mg/ml to 60 mg/ml, Diclofenac 40 mg/ml to 80 mg/ml
Method: In comparative example 2 and inventive examples 5 to 8 as described below, a compound or combination of compounds was administered topically to the paw by means of an ointment or solution (FIGS. 10 to 18).
The efficacy was tested when a compound or a compositions of compounds was administered topically as an ointment or a solution. The study was performed on male albino rats (150-180 g body weight) to which an edema of paw was induced by injection of Complete Freunds Adjuvant (CFA). CFA is a composition of inactivated and dried Myobacteria tuberculoses, emulsified in mineral oil which is used as an immunopotentiator causing a painful reaction that lasts 7-8 days after subcutaneous injection.
The studies of comparative example 2 and inventive examples 5 to 8 were performed according to the following procedure: 50 μL of CFA were injected sub plantar into the right hind paw, inducing mechanical-hyperalgesia after 24 hours. […]
as §1, with “Pain is deemed to be perceived one the rat starts to withdraw the paw. This value (withdrawal threshold in gram) is the pressure at which the animal feels pain (cut-off 450 g).” left out

Compound	efficacy when administered alone (CFA-hindpaw inflammation)	efficacy when topically administered alone [1]
O=C(O)Cc1ccccc1Nc1c(Cl)cccc1Cl [Diclofenac, 2-(2,6-dichloranilino) phenylacetic acid]	dose dependent efficacy	dose dependent efficacy
CCN(CC)CC(=O)Nc1c(C)cccc1C [Lidocaine, 2-(diethylamino)-N-(2,6-dimethylphenyl)acetamide]	dose dependent efficacy	dose dependent efficacy
